Results on 13 compounds are retold here after patent publication US20150218172A1, “Pyrrolo[2,3-D]Pyrimidine Tropomyosin-Related Kinase Inhibitors” (PFIZER LIMITED, priority 2012, published 2015).

In the experiment the target is T1, TrkA (Homo sapiens, UniProt P04629).
T1 construct: aa 441-796; His; purchased Invitrogen PV3144
T1 sequence (P04629 441-796): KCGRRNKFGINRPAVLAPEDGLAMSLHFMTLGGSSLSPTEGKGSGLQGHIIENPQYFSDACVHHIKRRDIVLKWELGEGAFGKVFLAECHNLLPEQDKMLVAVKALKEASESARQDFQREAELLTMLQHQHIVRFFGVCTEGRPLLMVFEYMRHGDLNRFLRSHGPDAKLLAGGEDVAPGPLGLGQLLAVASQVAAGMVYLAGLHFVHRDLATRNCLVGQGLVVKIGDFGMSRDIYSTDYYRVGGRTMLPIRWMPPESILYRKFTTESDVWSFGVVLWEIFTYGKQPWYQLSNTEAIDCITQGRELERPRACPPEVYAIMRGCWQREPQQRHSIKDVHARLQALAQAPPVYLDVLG
The experiment is described as follows: Isolated TRK enzyme assay (HTRF KinEASE-TK kit), PV3144 TrkA enzyme assay. It counts as biochemical. As to conditions: PV3144 TrkA enzyme assay, recombinant His-tagged cytoplasmic domain aa 441-796, 4 nM enzyme, 40 uM ATP; arithmetic mean where more than one reading; read-out: Trka enzyme (IC50). A digest of the protocol:
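Recombinant His-tagged cytoplasmic domain of human TrkA, preactivated with ATP for 20 min, then 20 min with compound before biotinylated TK substrate (1 uM final) at room temperature. HTRF read at 665/620 nm; % inhibition normalised to reference-compound and DMSO controls, IC50 from sigmoid fit, mean of replicates.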
On to `N#Cc1ccc(CC(=O)Nc2cc(C(=O)c3cn(CCO)c4ncncc34)ccn2)cc1` [Example 143, 2-(4-cyanophenyl)-N-(4-{[7-(2-hydroxyethyl)-7H-pyrrolo[2,3-d]pyrimidin-5-yl]carbonyl}pyridin-2-yl)acetamide], for which the IC50 is 0.268 µM. As for `O=C(Cc1ccc(OC(F)(F)F)cc1)Nc1cc(C(=O)c2cn(CCO)c3ncncc23)ccn1` [Example 144, N-(4-{[7-(2-hydroxyethyl)-7H-pyrrolo[2,3-d]pyrimidin-5-yl]carbonyl}pyridin-2-yl)-2-[4-(trifluoromethoxy)phenyl]acetamide], the figure is 0.111 µM; as for `O=C(Cc1ccc(F)cc1)Nc1cc(C(=O)c2cn(CCO)c3ncncc23)ccn1` [Example 145, 2-(4-fluorophenyl)-N-(4-{[7-(2-hydroxyethyl)-7H-pyrrolo[2,3-d]pyrimidin-5-yl]carbonyl}pyridin-2-yl)acetamide], 0.484 µM; as for `O=C(Cc1cccc(Cl)c1)Nc1cc(C(=O)c2cn(CCO)c3ncncc23)ccn1` [Example 146, 2-(3-chlorophenyl)-N-(4-{[7-(2-hydroxyethyl)-7H-pyrrolo[2,3-d]pyrimidin-5-yl]carbonyl}pyridin-2-yl)acetamide], 0.246 µM. As for `Cc1cc(C(F)(F)F)nn1CC(=O)Nc1cc(C(=O)c2cn(C(C)C)c3ncncc23)ccn1` [Example 147, 2-[5-methyl-3-(trifluoromethyl)-1H-pyrazol-1-yl]-N-(4-{[7-(propan-2-yl)-7H-pyrrolo[2,3-d]pyrimidin-5-yl]carbonyl}pyridin-2-yl)acetamide], the figure is 0.0162 µM.

Turning to `CC(C)c1ccnn1CC(=O)Nc1cc(C(=O)c2cn(C(C)C)c3ncncc23)ccn1` [Example 148, 2-[5-(propan-2-yl)-1H-pyrazol-1-yl]-N-(4-{[7-(propan-2-yl)-7H-pyrrolo[2,3-d]pyrimidin-5-yl]carbonyl}pyridin-2-yl)acetamide], the IC50 was 0.185 µM.

Consider `CC(C)n1cc(C(=O)c2ccnc(NC(=O)Cc3ccccc3)c2)c2cncnc21` [Example 149, 2-phenyl-N-(4-{[7-(propan-2-yl)-7H-pyrrolo[2,3-d]pyrimidin-5-yl]carbonyl}pyridin-2-yl)acetamide], for which the half-maximal inhibitory concentration (IC50) was found to be 0.171 µM. As for `CC(C)n1cc(C(=O)c2ccnc(NC(=O)Cc3ccc(Cl)cc3)c2)c2cncnc21` [Example 150, 2-(4-chlorophenyl)-N-(4-{[7-(propan-2-yl)-7H-pyrrolo[2,3-d]pyrimidin-5-yl]carbonyl}pyridin-2-yl)acetamide], the figure is 0.0853 µM; as for `Cc1cc(C(C)C)nn1CC(=O)Nc1cc(C(=O)c2cn(C(C)C)c3ncncc23)ccn1` [Example 151, 2-[5-methyl-3-(propan-2-yl)-1H-pyrazol-1-yl]-N-(4-{[7-(propan-2-yl)-7H-pyrrolo[2,3-d]pyrimidin-5-yl]carbonyl}pyridin-2-yl)acetamide], 0.0212 µM.

`Cc1cc(C)n(CC(=O)Nc2cc(C(=O)c3cn(C(C)C)c4ncncc34)ccn2)n1` [Example 152, 2-(3,5-dimethyl-1H-pyrazol-1-yl)-N-(4-{[7-(propan-2-yl)-7H-pyrrolo[2,3-d]pyrimidin-5-yl]carbonyl}pyridin-2-yl)acetamide]: the IC50 worked out at 0.0712 µM. Next, `CC(C)n1cc(C(=O)c2ccnc(NC(=O)Cc3ccc(F)cc3)c2)c2cncnc21` [Example 153, 2-(4-fluorophenyl)-N-(4-{[7-(propan-2-yl)-7H-pyrrolo[2,3-d]pyrimidin-5-yl]carbonyl}pyridin-2-yl)acetamide]: 0.042 µM. As for `CC(C)n1cc(C(=O)c2ccnc(NC(=O)Cc3cccc(OC(F)(F)F)c3)c2)c2cncnc21` [Example 154, N-(4-{[7-(propan-2-yl)-7H-pyrrolo[2,3-d]pyrimidin-5-yl]carbonyl}pyridin-2-yl)-2-[3-(trifluoromethoxy)phenyl]acetamide], the figure is 0.0124 µM; as for `CC(C)n1cc(C(=O)c2ccnc(NC(=O)Cc3cccc(Cl)c3)c2)c2cncnc21` [Example 155, 2-(3-chlorophenyl)-N-(4-{[7-(propan-2-yl)-7H-pyrrolo[2,3-d]pyrimidin-5-yl]carbonyl}pyridin-2-yl)acetamide], 0.0143 µM.
